Measurements published in BindingDB's records for doi:10.1111/j.1747-0285.2009.00924.x (Nankai University, 2010).

molecular target: T1, Ketol-acid reductoisomerase (NADP(+)) (Escherichia coli (strain K12), UniProt P05793); experiment: Enzyme Inhibition Assay; settings: pH 8; 30 °C
T1 sequence (P05793 whole entry): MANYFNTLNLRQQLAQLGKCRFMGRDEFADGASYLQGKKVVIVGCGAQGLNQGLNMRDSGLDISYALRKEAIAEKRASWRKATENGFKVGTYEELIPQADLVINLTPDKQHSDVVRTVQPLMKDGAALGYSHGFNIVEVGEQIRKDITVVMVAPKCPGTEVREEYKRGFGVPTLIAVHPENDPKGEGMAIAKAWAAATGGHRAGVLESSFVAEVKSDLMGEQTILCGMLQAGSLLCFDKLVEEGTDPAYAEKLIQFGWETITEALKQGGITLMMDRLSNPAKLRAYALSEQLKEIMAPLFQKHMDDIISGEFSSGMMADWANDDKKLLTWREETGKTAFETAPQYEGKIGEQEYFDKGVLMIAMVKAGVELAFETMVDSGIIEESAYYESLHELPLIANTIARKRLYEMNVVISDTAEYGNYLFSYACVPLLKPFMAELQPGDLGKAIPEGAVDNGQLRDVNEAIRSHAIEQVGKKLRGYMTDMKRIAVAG
Description: Inhibition of E. coli KARI (ketol-acid reductoisomerase) is time dependent, and activity was measured by the decrease in A340 at 30 C in solutions containing 0.2 mM […], 1 mM MgCl2, substrate 2-acetolactate and inhibitor in 0.1 M phosphate buffer at pH 8.0.

| Compound | Ki [µM] |
| --- | --- |
| CC(C)N(O)C(=O)C(=O)O [N-hydroxy-N-isopropyloxamate, IpOHA] | 2.75 |
| N#CC1(C(=O)O)CC1 [Cyclopropane, 4] | 95.3 |
| O=C(O)C1(C(=O)O)CC1 [Cyclopropane, 3] | 76.6 |
| NC(=O)C1(C(=O)O)CC1 [Cyclopropane, 5] | 31.2 |
